The values below come from ChEMBL document CHEMBL3758139, “Novel thiol-based histone deacetylase inhibitors bearing 3-phenyl-1H-pyrazole-5-carboxamide scaffold as surface recognition motif: Design, synthesis and SAR study” (Bioorg Med Chem Lett, 2016).

For orientation: IC50 means the point on the concentration scale where inhibition reaches its midpoint.

For one series, the target named is Histone deacetylase 1 (Homo sapiens, UniProt Q13547). The series is described as follows: Inhibition of recombinant human HDAC1.
Chain of Histone deacetylase 1 (Q13547 whole entry): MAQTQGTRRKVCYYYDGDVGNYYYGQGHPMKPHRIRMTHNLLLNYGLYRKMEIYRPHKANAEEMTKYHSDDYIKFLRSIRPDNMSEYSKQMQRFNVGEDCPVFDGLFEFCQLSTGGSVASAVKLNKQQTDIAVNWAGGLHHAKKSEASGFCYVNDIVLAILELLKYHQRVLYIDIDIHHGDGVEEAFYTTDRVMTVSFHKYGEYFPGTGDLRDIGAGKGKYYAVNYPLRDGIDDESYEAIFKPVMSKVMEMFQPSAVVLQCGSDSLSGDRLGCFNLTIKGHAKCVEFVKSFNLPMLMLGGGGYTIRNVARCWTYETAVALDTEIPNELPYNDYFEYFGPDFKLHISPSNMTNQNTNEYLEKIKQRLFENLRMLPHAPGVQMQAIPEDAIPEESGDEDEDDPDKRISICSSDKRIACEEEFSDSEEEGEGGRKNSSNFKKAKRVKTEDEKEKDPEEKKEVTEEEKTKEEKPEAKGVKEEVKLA
The nature of series [1]: Retention time of the compound. It counts as physicochemical.
The target of series [2] is T1, Protein deacetylase HDAC6 (Homo sapiens, UniProt Q9UBN7).
T1 sequence (Q9UBN7 whole entry): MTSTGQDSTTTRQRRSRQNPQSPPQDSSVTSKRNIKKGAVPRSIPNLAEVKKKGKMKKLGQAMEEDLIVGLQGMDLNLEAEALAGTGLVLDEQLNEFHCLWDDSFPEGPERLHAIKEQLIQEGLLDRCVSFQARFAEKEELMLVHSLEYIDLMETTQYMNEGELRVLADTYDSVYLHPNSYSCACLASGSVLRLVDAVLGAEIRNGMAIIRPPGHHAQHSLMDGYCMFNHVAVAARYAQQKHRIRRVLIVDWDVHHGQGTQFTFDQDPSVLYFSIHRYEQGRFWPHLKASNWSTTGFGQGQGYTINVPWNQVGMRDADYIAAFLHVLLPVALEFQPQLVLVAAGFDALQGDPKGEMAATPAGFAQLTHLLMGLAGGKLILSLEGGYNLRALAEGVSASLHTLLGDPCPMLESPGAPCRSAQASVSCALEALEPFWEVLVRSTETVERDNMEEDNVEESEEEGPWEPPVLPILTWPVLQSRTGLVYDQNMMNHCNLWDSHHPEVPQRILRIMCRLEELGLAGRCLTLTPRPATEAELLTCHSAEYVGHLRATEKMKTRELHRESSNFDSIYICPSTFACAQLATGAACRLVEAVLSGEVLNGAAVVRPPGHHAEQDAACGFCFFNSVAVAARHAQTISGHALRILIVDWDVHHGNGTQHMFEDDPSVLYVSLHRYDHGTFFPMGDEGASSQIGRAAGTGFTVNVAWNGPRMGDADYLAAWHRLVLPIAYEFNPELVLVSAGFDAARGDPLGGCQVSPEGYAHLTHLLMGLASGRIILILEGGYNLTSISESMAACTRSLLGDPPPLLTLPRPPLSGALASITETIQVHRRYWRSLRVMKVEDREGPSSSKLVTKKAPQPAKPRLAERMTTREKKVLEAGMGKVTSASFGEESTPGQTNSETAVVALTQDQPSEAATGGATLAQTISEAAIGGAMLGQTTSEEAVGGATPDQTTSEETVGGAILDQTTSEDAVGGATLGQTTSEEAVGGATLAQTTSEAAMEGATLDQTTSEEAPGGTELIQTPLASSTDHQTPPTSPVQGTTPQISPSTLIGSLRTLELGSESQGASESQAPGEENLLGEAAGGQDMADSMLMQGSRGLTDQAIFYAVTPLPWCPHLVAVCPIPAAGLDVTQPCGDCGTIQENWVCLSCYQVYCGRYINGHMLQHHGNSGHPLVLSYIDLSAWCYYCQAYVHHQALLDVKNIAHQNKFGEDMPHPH
The series can be described thus: Inhibition of recombinant human HDAC6.

The target of a further series is Histone deacetylase. The series can be described thus: Inhibition of HDAC in human HeLa nuclear extract. Type of series: protein assay.

With `O=C(CS)NCCCCNC(=O)c1cc(-c2ccc(F)cc2)[nH]n1`, the results for the IC50 (on Histone deacetylase 1; in series [2]; against Histone deacetylase) were over 10 µM, 2.1 µM and 8.6 µM, respectively. The Retention_time in series [1] was 2.94 min.
For `CCCCn1nc(-c2ccc(F)cc2)cc1C(=O)NCCCCCCS`, the IC50 (on Histone deacetylase 1; in series [2]; on Histone deacetylase) was over 10 µM throughout. This molecule displayed a Retention_time in series [1] of 11.92 min.
Take `O=C(O)CCn1nc(C(=O)NCCCCCCS)cc1-c1ccc(F)cc1`: the IC50 amounted to 2.7 µM on Histone deacetylase 1, 0.33 µM in series [2] and 0.4 µM against Histone deacetylase. This molecule registered a Retention_time in series [1] of 2.88 min.
The like results for `O=C(O)CCCn1nc(C(=O)NCCCCCCS)cc1-c1ccc(F)cc1` were, in that order, 1.8 µM, 0.45 µM, 0.81 µM and 6.9 min.
The corresponding values for `CC(C)n1nc(C(=O)NCCCCCCS)cc1-c1ccc(F)cc1` are over 10 µM, over 10 µM, over 10 µM and 4.93 min.
The corresponding values for `CCn1nc(-c2ccc(F)cc2)cc1C(=O)NCCCCCCS` are over 10 µM, 5 µM, over 10 µM and 5.79 min.
`O=C(NCCCCCS)c1cc(-c2ccc(F)cc2)[nH]n1`: the half-inhibitory concentration (IC50) on Histone deacetylase 1 amounted to 2.2 µM; in series [2], 1.1 µM; on Histone deacetylase, 1.9 µM. The same molecule showed a Retention_time in series [1] of 2.85 min.
As for `CCC(C)n1nc(C(=O)NCCCCCCS)cc1-c1ccc(F)cc1` (stereo not given), the IC50 (on Histone deacetylase 1; in series [2]; against Histone deacetylase) was over 10 µM each time. In series [1], the Retention_time is 5.87 min.
Consider `O=C(CS)NCCCNC(=O)c1cc(-c2ccc(F)cc2)[nH]n1`, for which the IC50 at Histone deacetylase 1 is 1.4 µM; in series [2] it was 0.88 µM; against Histone deacetylase, 1.5 µM. For the same molecule, the Retention_time in series [1] is on record as 3.25 min.
`C/C=C1\NC(=O)[C@H]2CSSCC/C=C/[C@H](CC(=O)N[C@H](C(C)C)C(=O)N2)OC(=O)[C@H](C(C)C)NC1=O` [ROMIDEPSIN]: on Histone deacetylase 1, the IC50 turned out to be 0.14 µM.
Turning to `CC(C)n1nc(-c2ccc(F)cc2)cc1C(=O)NCCCCCCS`, the IC50 at Histone deacetylase 1 was over 10 µM; in series [2], 7.4 µM; at Histone deacetylase it was over 10 µM. The Retention_time in series [1] is recorded as 7.17 min.
On to `CCn1nc(C(=O)NCCCCCCS)cc1-c1ccc(F)cc1`, for which the IC50 (at Histone deacetylase 1; in series [2]; against Histone deacetylase) was over 10 µM in each case. The Retention_time in series [1] is on record as 4.29 min.
Consider `O=C(O)Cn1nc(-c2ccc(F)cc2)cc1C(=O)NCCCCCCS`, for which the IC50 on Histone deacetylase 1 was found to be 0.22 µM; in series [2] it was 0.04 µM; against Histone deacetylase it was 0.16 µM. The Retention_time in series [1] is reported as 3.77 min.
The corresponding values for `O=C(NCCS)c1cc(-c2ccc(F)cc2)on1` are over 10 µM, 6.5 µM, over 10 µM and 2.91 min.
For `Cc1c(-c2ccc(F)cc2)nn(C)c1C(=O)NCCCCCCS`, the half-maximal inhibitory concentration (IC50) (at Histone deacetylase 1; in series [2]; against Histone deacetylase) was over 10 µM throughout. This molecule also returned a Retention_time in series [1] of 4.77 min.
Turning to `O=C(O)Cn1nc(C(=O)NCCCCCCS)cc1-c1ccc(F)cc1`, the IC50 on Histone deacetylase 1 is 1.9 µM; in series [2], 0.25 µM; against Histone deacetylase, 0.66 µM. The molecule also displayed a Retention_time in series [1] of 7.77 min.
As to `O=C(NCCCCCCS)c1cc(-c2ccc(F)cc2)nn1CCCCO`, the IC50 on Histone deacetylase 1 was determined as 0.25 µM; in series [2] it was 0.14 µM; on Histone deacetylase, 0.17 µM. The Retention_time in series [1] turned out to be 3.66 min.
The like results for `O=C(NCCCCCCS)c1cc(-c2ccc(F)cc2)nn1CCCO` were, in that order, 1.3 µM, 0.47 µM, 1.2 µM and 3.81 min.
As for `O=C(NCCCCCCS)c1cc(-c2ccc(F)cc2)n(CCO)n1`, the IC50 on Histone deacetylase 1 was 3.3 µM; in series [2] it was 1.4 µM; at Histone deacetylase, 2.1 µM. Besides, the Retention_time in series [1] turned out to be 3.13 min.
Consider `O=C(CCS)NCCCNC(=O)c1cc(-c2ccc(F)cc2)[nH]n1`, for which the IC50 (at Histone deacetylase 1; in series [2]; on Histone deacetylase) was over 10 µM each time. In series [1], this molecule displayed a Retention_time of 2.66 min.
`CCCCn1nc(C(=O)NCCCCCCS)cc1-c1ccc(F)cc1`: the IC50 (at Histone deacetylase 1; in series [2]; on Histone deacetylase) was over 10 µM in each case. Besides, in series [1], the Retention_time was determined as 6.79 min.
Consider `O=C(NCCCCCCS)c1cc(-c2ccc(F)cc2)n(CCCO)n1`, for which the IC50 at Histone deacetylase 1 was 3.6 µM; in series [2] it was 0.85 µM; at Histone deacetylase, 3.1 µM. The Retention_time in series [1] is 3.19 min.
With `O=C(O)CCn1nc(-c2ccc(F)cc2)cc1C(=O)NCCCCCCS`, the IC50 stood at 0.65 µM at Histone deacetylase 1, 0.21 µM in series [2] and 0.3 µM against Histone deacetylase. In series [1], this molecule displayed a Retention_time of 2.99 min.
As for `O=C(NCCCCCCS)c1cc(-c2ccc(F)cc2)n[nH]1`, the IC50 worked out at 0.58 µM on Histone deacetylase 1, 0.76 µM in series [2] and 0.69 µM on Histone deacetylase. The molecule further showed a Retention_time in series [1] of 3.37 min.
The corresponding values for `O=C(NCCCCS)c1cc(-c2ccc(F)cc2)on1` are over 10 µM, 4.9 µM, over 10 µM and 4.24 min.
On to `O=C(CCS)NCCNC(=O)c1cc(-c2ccc(F)cc2)[nH]n1`, for which the IC50 (on Histone deacetylase 1; in series [2]; on Histone deacetylase) was over 10 µM in each case. The molecule further showed a Retention_time in series [1] of 2.74 min.
Take `O=C(CS)NCCNC(=O)c1cc(-c2ccc(F)cc2)[nH]n1`: the IC50 on Histone deacetylase 1 was 2.3 µM; in series [2] it was 1.8 µM; against Histone deacetylase, 2.2 µM. The molecule further returned a Retention_time in series [1] of 2.85 min.
Regarding `O=C(NCCCCCS)c1cc(-c2ccc(F)cc2)on1`, the IC50 stood at 2.1 µM at Histone deacetylase 1, 1.3 µM in series [2] and 3 µM on Histone deacetylase. The molecule further yielded a Retention_time in series [1] of 5 min.
For the molecule `O=C(NCCCS)c1cc(-c2ccc(F)cc2)on1`, the values for the IC50 (on Histone deacetylase 1; in series [2]; against Histone deacetylase) were over 10 µM, 5.8 µM and over 10 µM, respectively. The Retention_time in series [1] was 3.37 min.
Regarding `O=C(NCCCCCCS)c1cc(-c2ccc(F)cc2)nn1CCO`, the IC50 at Histone deacetylase 1 came to 0.33 µM; in series [2], 0.91 µM; at Histone deacetylase, 0.69 µM. This molecule registered a Retention_time in series [1] of 2.86 min.
The like results for `O=C(NCCCCCCS)c1cc(-c2ccc(F)cc2)n(Cc2ccccc2)n1` were, in that order, over 10 µM, over 10 µM, over 10 µM and 5.49 min.
The corresponding values for `CCCn1nc(C(=O)NCCCCCCS)cc1-c1ccc(F)cc1` are over 10 µM, over 10 µM, over 10 µM and 5.2 min.
The like results for `CCCn1nc(-c2ccc(F)cc2)cc1C(=O)NCCCCCCS` were, in that order, over 10 µM, over 10 µM, over 10 µM and 6.96 min.
For `Cn1nc(C(=O)NCCCCCCS)cc1-c1ccc(F)cc1`, the IC50 was over 10 µM on Histone deacetylase 1, 6.9 µM in series [2] and over 10 µM against Histone deacetylase. In series [1], this molecule showed a Retention_time of 3.86 min.
`Cc1c(-c2ccc(F)cc2)n[nH]c1C(=O)NCCCCCCS`: the IC50 at Histone deacetylase 1 is over 10 µM; in series [2], 4.4 µM; on Histone deacetylase, over 10 µM. In series [1], this molecule returned a Retention_time of 4.08 min.
On to `O=C(NCCCCCCS)c1cc(-c2ccc(F)cc2)n(CCCCO)n1`, for which the IC50 was 0.44 µM on Histone deacetylase 1, 0.22 µM in series [2] and 0.54 µM against Histone deacetylase. Besides, in series [1], the Retention_time is 3.15 min.
Turning to `CCC(C)n1nc(-c2ccc(F)cc2)cc1C(=O)NCCCCCCS` (stereo not given), the half-inhibitory concentration (IC50) (on Histone deacetylase 1; in series [2]; against Histone deacetylase) was over 10 µM throughout. The Retention_time in series [1] is recorded as 8.4 min.
